# Data published in patent US20230094922A1, “METHODS OF THERAPEUTIC PROGNOSTICATION” (GENETIKAPLUS LTD., priority 2020, published 2023).
# System: iPSC-derived cortical neurons
# Type: cell-based
# [1] = responders vs non-responders after 10 μM Bupropion, p<0.01
# [2] = responders vs non-responders, 10 μM Bupropion, NS
# [3] = responders vs non-responders, 10 μM Bupropion, p<0.01
compound,measurement,setting,value
"CC(NC(C)(C)C)C(=O)c1cccc(Cl)c1 (stereo not drawn) [Bupropion, 3-Chloro-N-tert-butyl-β-keto-α-methylphenethylamin]",logFC PLCH2,[1],−1.051
same,logFC PLD5,[1],−1.909
same,logFC PLEKHD1,[1],−3.283
same,logFC PLPP4,[1],−0.9989
same,logFC PODN,[1],−1.12
same,logFC POLR2J3,[1],−0.756
same,logFC POU4F1,[1],−1.728
same,logFC PRCD,[1],−1.032
same,logFC PRPH,[1],−2.033
same,logFC PRSS33,[1],−1.593
same,logFC PSD4,[1],−0.7234
same,logFC PSMB8,[1],−1.14
same,logFC PSMB9,[1],−1.682
same,logFC PTGDS,[1],−1.612
same,logFC PTGER2,[1],−2.59
same,logFC RAB42,[1],−0.5093
same,logFC RBMS3,[1],−0.8065
same,logFC RBP1,[1],−0.6676
same,logFC RPH3A,[1],−2.057
same,logFC RSAD2,[1],−1.646
same,logFC S100B,[1],−1.744
same,logFC SAMD9,[1],−1.373
same,logFC SAMD9L,[1],−1.954
same,logFC SH3TC2,[1],−1.437
same,logFC SKOR2,[1],−2.986
same,logFC SLC2A1,[1],−0.6362
same,logFC SLC4A4,[1],−1.35
same,logFC SLC38A3,[1],−0.8613
same,logFC SMPD1,[1],−0.5833
same,logFC SST,[1],−1.012
same,logFC SUN2,[1],−0.4523
same,logFC SUSD1,[1],−0.629
same,logFC SYNC,[1],−1.688
same,logFC TAF1C,[1],−0.387
same,logFC TAP1,[1],−0.8369
same,logFC TAP2,[1],−0.8068
same,logFC TBC1D2,[1],−0.6958
same,logFC TF,[1],−1.257
same,logFC THBS2,[1],−1.7
same,logFC TLR6,[1],−1.138
same,logFC TLX1,[1],−2.764
same,logFC TLX3,[1],−1.593
same,logFC TMC3,[1],−2.021
same,logFC TMEM175,[1],−0.5016
same,logFC TMEM176A,[1],−1.203
same,logFC TMEM176B,[1],−1.184
same,logFC TNFRSF14,[1],−1.091
same,logFC TRAF1,[1],−0.9274
same,logFC TREM1,[1],−2.481
same,logFC TRIM8,[1],−0.2802
same,logFC TRMT9B,[1],−0.6888
same,logFC TRPV2,[1],−1.594
same,logFC TSHZ3,[1],−1.109
same,logFC USH1C,[1],−1.858
same,logFC USP18,[1],−0.9659
same,logFC VLDLR,[1],−0.4024
same,logFC VSTM2B,[1],−1.079
same,logFC ZFPM1,[1],−0.5127
same,logFC ZNF575,[1],−0.87
same,logFC ADAMTS9 expression,[2],0.9659
same,logFC ADGRE5 expression,[2],0.9432
same,logFC AMMECR1 expression,[2],0.7173
same,logFC ANKRD1 expression,[2],2.712
same,logFC ANKRD18A expression,[2],1.155
same,logFC ANKRD33B expression,[2],0.8016
same,logFC ANLN expression,[2],0.911
same,logFC AP3B1 expression,[2],0.7614
same,logFC ARHGAP10 expression,[2],1.24
same,logFC ARHGAP11A expression,[2],0.7121
same,logFC ARHGAP19 expression,[2],0.5865
same,logFC ARL11 expression,[2],0.8189
same,logFC BAX expression,[2],0.4774
same,logFC BUB1 expression,[2],0.6384
same,logFC C18orf54 expression,[2],0.7328
same,logFC CD53 expression,[2],1.712
same,logFC CDCA7 expression,[2],0.949
same,logFC CDK1 expression,[2],0.9851
same,logFC CDV3 expression,[2],0.7482
same,logFC CENPA expression,[2],1.025
same,logFC CENPH expression,[2],0.8278
same,logFC CENPW expression,[2],0.7956
same,logFC CHEK2 expression,[2],0.7669
same,logFC CHMP4C expression,[2],0.6773
same,logFC CHTF18 expression,[2],0.4356
same,logFC CKS1B expression,[2],0.5869
same,logFC CKS2 expression,[2],0.7778
same,logFC CNN1 expression,[2],0.8796
same,logFC COL17A1 expression,[2],1.832
same,logFC CPVL expression,[2],0.8555
same,logFC CRYZ expression,[2],1.044
same,logFC CSF3R expression,[2],2.81
same,logFC DAG1 expression,[2],0.5339
same,logFC DCP2 expression,[2],0.7702
same,logFC DEPDC1 expression,[2],1.005
same,logFC DHRS2 expression,[2],3.271
same,logFC DIAPH3 expression,[2],0.9363
same,logFC DLGAP5 expression,[2],0.8304
same,logFC DLX4 expression,[2],1.485
same,logFC DLX5 expression,[2],2.138
same,logFC DNMBP expression,[2],0.5323
same,logFC DSG2 expression,[2],0.746
same,logFC DSG3 expression,[2],2.297
same,logFC DSP expression,[2],1.327
same,logFC DUSP6 expression,[2],0.9289
same,logFC EDA2R expression,[2],0.569
same,logFC EFHD1 expression,[2],0.872
same,logFC EGLN3 expression,[2],1.216
same,logFC ELK3 expression,[2],0.9378
same,logFC EME1 expression,[2],0.7814
same,logFC EPHA7 expression,[2],1.592
same,logFC ERLIN1 expression,[2],0.5945
same,logFC ESAM expression,[2],1.688
same,logFC EXOC3L2 expression,[2],1.012
same,logFC FAM72A expression,[2],1.123
same,logFC FAM72B expression,[2],0.9318
same,logFC FAS expression,[2],1.079
same,logFC FBXO5 expression,[2],0.7533
same,logFC FGF23 expression,[2],1.468
same,logFC FNDC1 expression,[2],0.9667
same,logFC FOSL1 expression,[2],1.137
same,logFC FOXL1 expression,[2],1.191
same,logFC FUT10 expression,[2],0.6404
same,logFC GNPNAT1 expression,[2],1.06
same,logFC GTF2H3 expression,[2],0.8228
same,logFC HACD2 expression,[2],0.8389
same,logFC HAT1 expression,[2],0.7547
same,logFC HDAC1 expression,[2],0.4991
same,logFC HHIPL2 expression,[2],1.368
same,logFC HIBADH expression,[2],0.5725
same,logFC HMGB2 expression,[2],0.5953
same,logFC HMMR expression,[2],0.9939
same,logFC HNMT expression,[2],1.877
same,logFC IMPACT expression,[2],0.7315
same,logFC INPP5D expression,[2],1.208
same,logFC IQGAP3 expression,[2],0.6692
same,logFC ITGA2 expression,[2],0.6822
same,logFC KIAA1217 expression,[2],0.8875
same,logFC KIF2C expression,[2],0.6989
same,logFC KIF11 expression,[2],0.7863
same,logFC KIF14 expression,[2],0.7995
same,logFC KIF20B expression,[2],0.8251
same,logFC KIF23 expression,[2],0.7114
same,logFC KRT8 expression,[2],1.26
same,logFC KRT18 expression,[2],1.596
same,logFC L2HGDH expression,[2],0.7542
same,logFC LAMC1 expression,[2],0.8644
same,logFC LPP expression,[2],0.7521
same,logFC LRP4 expression,[2],1.051
same,logFC LRRC15 expression,[2],0.6532
same,logFC LTA4H expression,[2],0.6494
same,logFC MAD2L1 expression,[2],0.8373
same,logFC MAN2A1 expression,[2],0.8316
same,logFC MATN3 expression,[2],0.9618
same,logFC MDM2 expression,[2],0.6788
same,logFC MELK expression,[2],0.849
same,logFC MGST1 expression,[2],0.9354
same,logFC MICB expression,[2],0.9474
same,logFC MSX2 expression,[2],1.687
same,logFC MT1E expression,[2],0.1751
same,logFC MTBP expression,[2],0.7803
same,logFC MUC4 expression,[2],0.8705
same,logFC NDC1 expression,[2],0.8188
same,logFC NDC80 expression,[2],0.8291
same,logFC NEMP1 expression,[2],0.791
same,logFC NGF expression,[2],0.7928
same,logFC NLRP1 expression,[2],1.235
same,logFC NOSTRIN expression,[2],1.169
same,logFC NPPB expression,[2],1.671
same,logFC NUF2 expression,[2],0.7214
same,logFC NUP37 expression,[2],0.7592
same,logFC NUPR1 expression,[2],1.745
same,logFC ORC6 expression,[2],0.8019
same,logFC PADI1 expression,[2],0.9659
same,logFC PGM2 expression,[2],0.8787
same,logFC PLAU expression,[2],2.302
same,logFC PMP22 expression,[2],1.525
same,logFC POLQ expression,[2],0.7494
same,logFC PPP1R13L expression,[2],0.8159
same,logFC PRDX6 expression,[2],0.5898
same,logFC PROCR expression,[2],1.393
same,logFC PRR11 expression,[2],0.6089
same,logFC PTGR1 expression,[2],0.6824
same,logFC PYGL expression,[2],0.8577
same,logFC RAD51AP1 expression,[2],1.085
same,logFC RBMS1 expression,[2],0.7861
same,logFC RPL22L1 expression,[2],1.141
same,logFC RPS27L expression,[2],0.7459
same,logFC RREB1 expression,[2],0.5116
same,logFC RRM2B expression,[2],0.7867
same,logFC RUNX2 expression,[2],0.8924
same,logFC S1PR5 expression,[2],1.906
same,logFC SELENOV expression,[2],0.8135
same,logFC SEM1 expression,[2],0.5019
same,logFC SEPSECS expression,[2],0.7254
same,logFC SEPTIN10 expression,[2],0.7236
same,logFC SERPINE1 expression,[2],2.019
same,logFC SESN1 expression,[2],0.7238
same,logFC SFT2D1 expression,[2],0.6487
same,logFC SLC22A31 expression,[2],0.9625
same,logFC SLC47A1 expression,[2],2.056
same,logFC SPDL1 expression,[2],0.7492
same,logFC SPOCD1 expression,[2],1.33
same,logFC SPP1 expression,[2],1.215
same,logFC STIL expression,[2],0.759
same,logFC STX3 expression,[2],0.5017
same,logFC SWAP70 expression,[2],0.8869
same,logFC TAF4B expression,[2],0.9582
same,logFC TFPI2 expression,[2],1.367
same,logFC TGIF1 expression,[2],0.8371
same,logFC TM7SF3 expression,[2],0.5627
same,logFC TMTC1 expression,[2],1.156
same,logFC TNFRSF10D expression,[2],0.8463
same,logFC TNFRSF12A expression,[2],0.7449
same,logFC TOP2A expression,[2],0.7201
same,logFC TPM1 expression,[2],0.7857
same,logFC TRAM2 expression,[2],0.5417
same,logFC TRIAP1 expression,[2],0.7343
same,logFC TTK expression,[2],0.82
same,logFC UBE2C expression,[2],0.5692
same,logFC USP28 expression,[2],0.4989
same,logFC USP53 expression,[2],0.8262
same,logFC VRK1 expression,[2],0.7229
same,logFC VWDE expression,[2],1.176
same,logFC WEE1 expression,[2],1.13
same,logFC WNT9B expression,[2],0.5972
same,logFC WWC2 expression,[2],0.7083
same,logFC XPO1 expression,[2],0.7396
same,logFC YBX3 expression,[2],0.5165
same,logFC ZGRF1 expression,[2],0.9121
same,logFC ZIC2 expression,[2],0.7767
same,logFC ADAL expression,[3],0.3007
same,logFC ANKRD27 expression,[3],0.3035
same,logFC ARHGEF26 expression,[3],0.4633
same,logFC ATAD5 expression,[3],0.5442
same,logFC BAG4 expression,[3],0.4071
same,logFC CCDC150 expression,[3],0.6042
same,logFC CDH6 expression,[3],0.9224
same,logFC CHML expression,[3],0.4888
same,logFC DHFR expression,[3],0.5987
same,logFC DLX2 expression,[3],0.9412
same,logFC DMRTA1 expression,[3],0.858
same,logFC DNA2 expression,[3],0.5431
same,logFC EIF1AX expression,[3],0.5493
same,logFC F8 expression,[3],0.4608
same,logFC FBXO22 expression,[3],0.2957
same,logFC FREM2 expression,[3],0.865
same,logFC GPC3 expression,[3],1.257
same,logFC HAUS6 expression,[3],0.5025
same,logFC HLA-DMA expression,[3],0.9185
same,logFC ITGA6 expression,[3],0.5208
